Where a name gives a salt, the structure may show the parent alone. Activity calls are given as the source filed them.
Tests used:
[1] = target: T1, Sentrin-specific protease 1 (Homo sapiens, UniProt Q9P0U3); assay: potency of human SENP1 inhibitors, dose response, biochemical, kinetic FRET (AID 651697); format: functional; conditions: read-out: IC50_Mean
T1 sequence (Q9P0U3 whole entry): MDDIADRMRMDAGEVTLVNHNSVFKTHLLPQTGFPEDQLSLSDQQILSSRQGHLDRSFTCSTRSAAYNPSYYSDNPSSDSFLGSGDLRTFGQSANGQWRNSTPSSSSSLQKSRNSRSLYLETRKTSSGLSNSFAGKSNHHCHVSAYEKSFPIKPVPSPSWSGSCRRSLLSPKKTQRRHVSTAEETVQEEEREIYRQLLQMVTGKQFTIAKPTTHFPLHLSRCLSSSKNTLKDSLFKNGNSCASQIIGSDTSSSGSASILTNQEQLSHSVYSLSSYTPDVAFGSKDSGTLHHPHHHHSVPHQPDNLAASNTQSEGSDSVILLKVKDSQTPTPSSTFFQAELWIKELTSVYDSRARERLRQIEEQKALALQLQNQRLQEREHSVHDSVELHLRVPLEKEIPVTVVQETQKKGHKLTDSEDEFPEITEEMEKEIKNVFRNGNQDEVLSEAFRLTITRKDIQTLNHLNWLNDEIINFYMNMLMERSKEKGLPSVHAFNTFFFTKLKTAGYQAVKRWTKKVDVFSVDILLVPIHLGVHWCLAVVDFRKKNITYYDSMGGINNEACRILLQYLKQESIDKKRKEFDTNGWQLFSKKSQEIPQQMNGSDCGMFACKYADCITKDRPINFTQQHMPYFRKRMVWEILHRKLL

[2] = target: T1, Sentrin-specific protease 1; assay: Dose response confirmation of small molecule inhibitors of the catalytic domain of the SUMO protease, SENP1 in a FRET assay.; format: functional; conditions: read-out: IC50_Mean
Mu-type opioid receptor = Mu-type opioid receptor (Homo sapiens, UniProt P35372); format: functional, cell-based;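 further: U2OS cells with beta-arrestin recruitment to OPRM1 by beta-gal complementation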
Sequence of Mu-type opioid receptor (P35372 whole entry): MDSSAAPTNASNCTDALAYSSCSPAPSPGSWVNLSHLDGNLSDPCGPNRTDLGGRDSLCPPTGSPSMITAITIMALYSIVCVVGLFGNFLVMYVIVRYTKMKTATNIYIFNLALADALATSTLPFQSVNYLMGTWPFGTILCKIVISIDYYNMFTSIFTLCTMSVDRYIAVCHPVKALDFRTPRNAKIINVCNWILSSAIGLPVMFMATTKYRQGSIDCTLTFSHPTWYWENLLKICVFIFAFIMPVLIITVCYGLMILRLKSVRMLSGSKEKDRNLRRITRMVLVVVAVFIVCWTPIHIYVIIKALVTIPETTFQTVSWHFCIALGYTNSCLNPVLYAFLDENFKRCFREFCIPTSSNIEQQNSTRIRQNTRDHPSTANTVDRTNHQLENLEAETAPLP

[3] = target: T2, Corticotropin-releasing factor receptor 2/Corticotropin-releasing factor-binding protein (Homo sapiens, UniProt P24387+Q13324); assay: Dose Response confirmation of uHTS hits for small molecule antagonists of the CRF-binding protein and CRF-R2 receptor complex.; format: functional; conditions: read-out: IC50_Mean
T2 sequence (Q13324 whole entry): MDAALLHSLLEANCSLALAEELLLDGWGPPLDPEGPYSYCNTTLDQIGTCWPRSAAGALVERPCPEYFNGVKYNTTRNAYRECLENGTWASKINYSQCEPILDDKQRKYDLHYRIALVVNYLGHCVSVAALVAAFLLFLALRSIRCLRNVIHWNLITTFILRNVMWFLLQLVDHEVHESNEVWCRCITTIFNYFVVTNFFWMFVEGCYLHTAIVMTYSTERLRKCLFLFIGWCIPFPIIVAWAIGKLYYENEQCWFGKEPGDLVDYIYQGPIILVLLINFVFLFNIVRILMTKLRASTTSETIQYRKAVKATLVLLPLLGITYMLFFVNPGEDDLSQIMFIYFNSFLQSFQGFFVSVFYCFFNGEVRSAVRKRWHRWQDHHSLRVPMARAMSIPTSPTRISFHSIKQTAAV
T2 sequence (P24387 whole entry): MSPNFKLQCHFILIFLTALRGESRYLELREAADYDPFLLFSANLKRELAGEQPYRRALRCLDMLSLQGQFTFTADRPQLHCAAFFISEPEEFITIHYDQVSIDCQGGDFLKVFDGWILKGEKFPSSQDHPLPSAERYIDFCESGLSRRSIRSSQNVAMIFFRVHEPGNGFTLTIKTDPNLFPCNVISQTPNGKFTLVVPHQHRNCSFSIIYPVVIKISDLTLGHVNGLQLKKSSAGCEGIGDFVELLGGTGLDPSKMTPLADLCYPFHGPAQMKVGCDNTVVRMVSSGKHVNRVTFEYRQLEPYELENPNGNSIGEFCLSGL

[4] = target: T2, Corticotropin-releasing factor receptor 2/Corticotropin-releasing factor-binding protein; assay: activators of CRF receptor 2 with binding protein – uHTS hits, confirmation (AID 602473); format: functional; conditions: read-out: EC50_Mean
[5] = CRF-BP/CRF-R2 complex antagonists, dose response, cell-based, uHTS hits, 384-well (AID 651639); format: functional, Homo sapiens; conditions: read-out: IC50_Mean
[6] = target: T3, Rac GTPase-activating protein 1 (Homo sapiens, UniProt Q9H0H5); assay: MgcRacGAP GTPase-activating activity inhibitors, confirmation, biochemical, ADP Hunter fluorescence, primary and confirmatory (AID 624330); format: functional
T3 sequence (Q9H0H5 whole entry): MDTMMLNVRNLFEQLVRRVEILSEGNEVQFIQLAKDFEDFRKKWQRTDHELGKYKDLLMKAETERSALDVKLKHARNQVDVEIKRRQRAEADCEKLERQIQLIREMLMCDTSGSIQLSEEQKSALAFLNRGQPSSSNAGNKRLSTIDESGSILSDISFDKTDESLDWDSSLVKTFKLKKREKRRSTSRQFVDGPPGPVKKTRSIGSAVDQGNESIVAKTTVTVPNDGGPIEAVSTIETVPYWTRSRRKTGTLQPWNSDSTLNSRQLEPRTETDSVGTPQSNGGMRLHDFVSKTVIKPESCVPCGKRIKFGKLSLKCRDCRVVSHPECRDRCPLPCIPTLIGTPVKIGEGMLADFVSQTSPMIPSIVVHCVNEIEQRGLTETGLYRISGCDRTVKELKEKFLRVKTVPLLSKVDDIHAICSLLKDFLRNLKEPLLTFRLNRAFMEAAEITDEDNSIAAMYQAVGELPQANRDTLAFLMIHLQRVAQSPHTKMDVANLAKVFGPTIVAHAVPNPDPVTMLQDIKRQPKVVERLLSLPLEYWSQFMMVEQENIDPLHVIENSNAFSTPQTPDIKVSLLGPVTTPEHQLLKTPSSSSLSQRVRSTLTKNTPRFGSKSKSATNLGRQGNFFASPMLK

Genome polyprotein = Genome polyprotein (dengue virus type 2, UniProt P29990); assay: Dengue-2 NS5 methyltransferase inhibitors, primary screen, biochemical, confirmation dose response (AID 588689); format: functional
Sequence of Genome polyprotein (P29990 2492-3391 limits assumed): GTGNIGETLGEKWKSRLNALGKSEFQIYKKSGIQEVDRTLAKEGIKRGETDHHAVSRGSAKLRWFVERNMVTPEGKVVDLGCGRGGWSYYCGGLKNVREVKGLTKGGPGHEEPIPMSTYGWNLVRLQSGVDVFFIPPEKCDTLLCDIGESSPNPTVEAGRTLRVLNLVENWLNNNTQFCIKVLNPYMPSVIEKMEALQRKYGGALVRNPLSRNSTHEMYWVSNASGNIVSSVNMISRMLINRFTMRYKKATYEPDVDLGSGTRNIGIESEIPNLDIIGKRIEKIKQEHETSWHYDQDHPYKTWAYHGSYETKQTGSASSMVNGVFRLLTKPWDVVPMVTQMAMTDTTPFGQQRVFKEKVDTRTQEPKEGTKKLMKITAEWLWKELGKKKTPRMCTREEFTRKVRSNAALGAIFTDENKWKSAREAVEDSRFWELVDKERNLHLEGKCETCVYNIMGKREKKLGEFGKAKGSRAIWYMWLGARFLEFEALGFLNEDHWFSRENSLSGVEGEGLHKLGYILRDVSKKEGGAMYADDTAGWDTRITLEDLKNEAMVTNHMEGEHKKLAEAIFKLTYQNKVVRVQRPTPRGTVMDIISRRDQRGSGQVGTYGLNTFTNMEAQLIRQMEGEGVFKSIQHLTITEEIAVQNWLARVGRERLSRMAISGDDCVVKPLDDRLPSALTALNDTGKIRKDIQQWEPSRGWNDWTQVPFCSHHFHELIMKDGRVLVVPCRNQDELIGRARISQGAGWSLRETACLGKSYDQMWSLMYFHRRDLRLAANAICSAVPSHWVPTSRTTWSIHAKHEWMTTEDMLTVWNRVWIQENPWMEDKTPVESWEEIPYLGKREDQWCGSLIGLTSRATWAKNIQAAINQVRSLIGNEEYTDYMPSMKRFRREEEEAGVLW

[7] = target: T4, Long-chain-fatty-acid--AMP ligase FadD28 (Mycobacterium tuberculosis, UniProt P9WQ59); assay: Fluorescence polarization aasay to screen for inhibitors that compete for the binding of FadD28 to a bisubstrate Measured in Biochemical System Using Plate Reader - 2147-01_Inhibitor_Dose_CherryPick_Activity.; format: functional, Mycobacterium tuberculosis H37Rv
T4 sequence (P9WQ59 whole entry): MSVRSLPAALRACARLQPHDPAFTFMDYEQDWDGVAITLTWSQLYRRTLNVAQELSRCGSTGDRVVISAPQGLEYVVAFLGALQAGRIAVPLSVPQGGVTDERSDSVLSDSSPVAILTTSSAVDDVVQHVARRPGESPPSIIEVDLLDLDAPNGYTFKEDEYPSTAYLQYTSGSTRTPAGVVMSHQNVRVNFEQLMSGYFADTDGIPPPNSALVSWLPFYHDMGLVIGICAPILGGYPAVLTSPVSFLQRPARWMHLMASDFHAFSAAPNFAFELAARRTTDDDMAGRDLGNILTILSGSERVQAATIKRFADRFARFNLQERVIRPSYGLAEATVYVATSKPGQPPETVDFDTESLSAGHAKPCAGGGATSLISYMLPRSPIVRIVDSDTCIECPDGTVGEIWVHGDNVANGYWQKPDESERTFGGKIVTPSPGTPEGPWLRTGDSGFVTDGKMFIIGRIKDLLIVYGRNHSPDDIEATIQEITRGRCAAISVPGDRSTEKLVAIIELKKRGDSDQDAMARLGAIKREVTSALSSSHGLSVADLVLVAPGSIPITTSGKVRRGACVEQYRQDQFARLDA

HEK293 = assay: inhibitors of LMP1-driven NF-kB reporter, dose response, cell-based, HEK293, luciferase, cherry-pick (AID 588343); format: functional; conditions: Homo sapiens
cells = format: functional, cell-based
[8] = target: T5, Nuclear receptor subfamily 0 group B member 1 (Homo sapiens, UniProt P51843); format: functional, cell-based;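 further: HEK293T cells transfected with SF-1 and DAX-1 plus StAR promoter luciferase reporter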
T5 sequence (P51843 whole entry): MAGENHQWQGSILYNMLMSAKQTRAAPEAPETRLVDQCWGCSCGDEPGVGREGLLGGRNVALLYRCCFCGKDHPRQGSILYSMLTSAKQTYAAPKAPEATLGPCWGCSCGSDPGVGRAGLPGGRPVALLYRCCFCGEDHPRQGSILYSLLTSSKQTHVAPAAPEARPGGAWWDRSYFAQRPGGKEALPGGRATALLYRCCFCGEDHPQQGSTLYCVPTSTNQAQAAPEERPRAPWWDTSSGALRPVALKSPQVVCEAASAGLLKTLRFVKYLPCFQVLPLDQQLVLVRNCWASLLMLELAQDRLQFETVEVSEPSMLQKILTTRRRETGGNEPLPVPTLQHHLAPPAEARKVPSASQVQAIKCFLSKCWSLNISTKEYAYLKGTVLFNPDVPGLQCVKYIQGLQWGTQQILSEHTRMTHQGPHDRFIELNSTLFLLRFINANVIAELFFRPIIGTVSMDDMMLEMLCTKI

[9] = miR-122 activators in hepatoma reporter cells, dose response, cell-based, Huh7 psiCHECK-miR122, Renilla luciferase, cherry-picked (AID 651956); format: functional;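 further: huh7 hepatoma cells stably carrying a psiCHECK-2 miR-122 sensor plasmid; renilla luciferase signal reporting endogenous miR-122 activity after 48 h compound exposure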
[10] = target: Fructose-bisphosphate aldolase (Mycobacterium tuberculosis, UniProt P9WQA3); assay: Fluorescence-based biochemical high throughput dose response assay for inhibitors of the fructose-bisphosphate aldolase (FBA) of M. tuberculosis.; format: functional
Sequence of Fructose-bisphosphate aldolase (P9WQA3 whole entry): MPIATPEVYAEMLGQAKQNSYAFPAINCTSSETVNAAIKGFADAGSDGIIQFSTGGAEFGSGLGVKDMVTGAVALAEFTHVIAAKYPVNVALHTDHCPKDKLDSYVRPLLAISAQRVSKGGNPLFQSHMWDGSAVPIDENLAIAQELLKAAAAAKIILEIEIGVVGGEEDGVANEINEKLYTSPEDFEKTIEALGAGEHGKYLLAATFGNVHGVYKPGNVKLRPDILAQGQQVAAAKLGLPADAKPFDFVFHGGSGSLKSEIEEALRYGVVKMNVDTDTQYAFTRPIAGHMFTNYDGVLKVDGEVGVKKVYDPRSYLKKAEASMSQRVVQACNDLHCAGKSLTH

[11] = Luminescence Cell-Based Dose Retest to Confirm Inhibitors of Cancer Stem Cells. [Related pubchem assays (depositor defined):AID2717, AID2721]; format: functional; conditions: Homo sapiens
[12] = cytotoxicity in HMLE control line with eGFP shRNA, dose response, counter-screen for HMLE_sh_ECad selective toxicity project, cell-based, HMLE_sh_eGFP, luminescence (AID 463074); format: functional, Homo sapiens;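 further: HMLE human mammary epithelial cells expressing control shRNA against eGFP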
[13] = target: T6, Methionyl-tRNA synthetase, putative (Trypanosoma brucei brucei, UniProt Q38C91); format: functional, Trypanosoma brucei brucei strain 927/4 GUTat10.1
T6 sequence (Q38C91 whole entry): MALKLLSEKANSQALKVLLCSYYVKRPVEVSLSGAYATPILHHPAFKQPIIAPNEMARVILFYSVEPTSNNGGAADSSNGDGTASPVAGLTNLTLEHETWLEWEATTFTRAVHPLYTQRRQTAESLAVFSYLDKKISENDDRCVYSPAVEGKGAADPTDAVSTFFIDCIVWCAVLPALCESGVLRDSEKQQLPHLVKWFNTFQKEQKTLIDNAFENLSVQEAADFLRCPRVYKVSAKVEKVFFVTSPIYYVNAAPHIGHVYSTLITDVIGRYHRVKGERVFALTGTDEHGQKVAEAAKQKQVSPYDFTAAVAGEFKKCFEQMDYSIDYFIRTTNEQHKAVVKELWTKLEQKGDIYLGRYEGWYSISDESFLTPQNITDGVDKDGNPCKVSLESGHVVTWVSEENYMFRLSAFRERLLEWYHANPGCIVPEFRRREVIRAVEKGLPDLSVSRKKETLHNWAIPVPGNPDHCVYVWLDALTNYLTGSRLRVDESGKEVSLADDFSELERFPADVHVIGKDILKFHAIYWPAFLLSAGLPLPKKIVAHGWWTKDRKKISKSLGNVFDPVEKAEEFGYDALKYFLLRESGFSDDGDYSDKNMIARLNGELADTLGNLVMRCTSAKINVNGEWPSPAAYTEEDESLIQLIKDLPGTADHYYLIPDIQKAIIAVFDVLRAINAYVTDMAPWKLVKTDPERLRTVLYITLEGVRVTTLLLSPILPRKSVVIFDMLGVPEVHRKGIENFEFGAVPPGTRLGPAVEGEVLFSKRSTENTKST

[14] = Counterscreen for inhibitors of Trypanosoma brucei methionyl tRNA synthetase (MetRS): Luminescence-based cell-based high throughput dose response assay to identify compounds that are cytotoxic to Jurkat human T lymphocyte cells.; format: functional
[15] = target: T6, Methionyl-tRNA synthetase, putative; format: functional, Trypanosoma brucei brucei strain 927/4 GUTat10.1; remark: listed apart in the source

CN(C)CCNc1cccc2sc3ccc(O)cc3c(=O)c12
IC50 [1]: 37.8 µM (inactive)
IC50 [2]: 26 µM (inactive)

CC(CCc1ccc(O)cc1)NCCc1ccc(O)c(O)c1 (stereo not given) [DOBUTAMINE HYDROCHLORIDE]
EC50 (Mu-type opioid receptor): 92.5 µM (inactive)

CCOc1cc(/C=N/NC(=O)c2ccccc2OCc2ccc(F)cc2)ccc1O
IC50 [3]: 4.05 µM (active)
EC50 [4]: > 53 µM (inactive)
IC50 [5]: > 20 µM (inactive)
IC50 [6]: 78.5 µM (active)

C=CCOc1ccc(/C=C2\SC(=S)N(NS(=O)(=O)c3ccccc3)C2=O)cc1
IC50 (Genome polyprotein): 30.4 µM (active)
IC50 [3]: 3.68 µM (active)
EC50 [4]: > 53 µM (inactive)
IC50 [5]: 6.69 µM (active)
AC50 [7]: > 100 µM (inactive)

COc1ccccc1NC(=O)CONC(=N)CC(=O)NC1CCCCC1
IC50 [1]: 14.1 µM (active)
IC50 [2]: 12.5 µM (active)

Cc1ccc(NC(=O)C(=O)Nc2ccccn2)cc1
AC50 (HEK293): 2.59 µM (active)
IC50 (cells): > 67.6 µM (inactive)
IC50 [8]: > 67.6 µM (inactive)

CCCCN(CCCC)C(=O)CN(C)S(=O)(=O)c1ccc2c(c1)n(C)c(=O)c(=O)n2C
AC50 [9]: 1.4 µM (active)

COc1ccc(NC(=O)C2(C)Cc3c(-c4ccc(N(C)C)cc4)ccnc3O2)cc1OC (stereo not given)
IC50 [10]: 0.731 µM (active)

O=C(COc1ccc(Cl)cc1Cl)N/N=C/c1ccc[nH]1
AC50 [11]: 1.92 µM (active)
AC50 [12]: 20.7 µM (active)
IC50 [13]: 13.2 µM (inactive)
IC50 [14]: 22.2 µM (inactive)
IC50 [15]: 22.4 µM (inactive)

Cc1c(C)c2cc(Cl)c(OCC(=O)NCCCN3CCCC3=O)cc2oc1=O
IC50 [10]: 3.71 µM (active)
